{"source": "patent US20040039053A1", "about": "“Use of(-) (3-halomethylphenoxy) (4-halophenyl) acetic acid derivatives for treatment of insulin resistance, type 2 diabetes, hyperlipidemia and hyperuricemia” (priority 2000, published 2004)", "key": {"[1]": {"experiment": "Plasma hydrolysis of (−) CPTA prodrug esters in human plasma (Example 21)", "format": "in vitro ADME", "details": "human plasma (heparinized, pooled), 125 or 250 μM, 37° C., hydrolysis to (−) CPTA; read-out: Plasma T1/2 (converted)", "experimental": "This example illustrates the plasma hydrolysis of various prodrug esters of the (S)-enantiomer of CPTA at physiological conditions. Hydrolysis was monitored and analyzed by HPLC. The hydrolytic product was identified by comparison to authentic (−) CPTA and the hydrolytic rates were calculated. [drawing 83]\nHuman plasma (heparinized, pooled) was obtained from Golden West Biololgicals Inc., USA; Plasma incubation was carried out in a Water Bath Shaker (New Brunswick Scientific, Inc.); Sample analyses were carried out on Agilent HPLC 1100 system.\nPrepare 31.25 or 62.5 mM prodrug stock solutions in 100% DMSO. Add 4 μL of 31.25 or 62.5 mM prodrug stock solutions to 1.0 mL of plasma in a microcentrifuge tube to make plasma concentration at 125 or 250 μM, mix gently. Aliquots of 50 μL are transferred to 15 microcentrifuge vials. Three samples are immediately removed to a freezer at about −80° C. (0 time point), the remaining samples are incubated in a bath shaker at 37° C. Three samples are removed at 30 min, 2, 7 and 24 hr, and stored at −80° C. until analysis. The relative concentrations of MBX-compounds are determined by HPLC methods. If there are enough data points, the hydrolytic rate can be calculated using WinNonlin software. Table 10 provides a summary of plasma half-lives of some pro-drug esters and FIGS. 20A-20G illustrate the hydrolytic curves of those prodrug esters."}, "CYP2C19": {"target": "CYP2C19 (Homo sapiens, UniProt P33261)", "sequence (P33261 whole entry, canonical isoform)": "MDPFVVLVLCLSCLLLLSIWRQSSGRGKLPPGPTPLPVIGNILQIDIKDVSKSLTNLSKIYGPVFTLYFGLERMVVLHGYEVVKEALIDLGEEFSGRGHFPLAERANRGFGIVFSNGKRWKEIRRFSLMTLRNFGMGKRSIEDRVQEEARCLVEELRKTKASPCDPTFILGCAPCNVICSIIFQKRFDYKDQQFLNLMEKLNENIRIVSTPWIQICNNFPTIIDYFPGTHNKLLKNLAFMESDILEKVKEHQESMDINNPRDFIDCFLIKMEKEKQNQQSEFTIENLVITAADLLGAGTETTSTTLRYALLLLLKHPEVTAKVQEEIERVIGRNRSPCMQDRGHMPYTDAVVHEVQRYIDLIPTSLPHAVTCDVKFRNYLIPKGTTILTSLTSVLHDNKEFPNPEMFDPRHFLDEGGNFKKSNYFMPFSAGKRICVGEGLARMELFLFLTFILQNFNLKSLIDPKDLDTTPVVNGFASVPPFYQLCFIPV", "experiment": "Cytochrome P450 isoform inhibition in human hepatic microsomes, S-mephenytoin (Example 18)", "format": "in vitro ADME", "details": "both sexes, human, pooled human hepatic microsomes, probe S-mephenytoin 50 μM; positive control 10 μM"}, "C57BL/6J ob/ob mice": {"test_system": "C57BL/6J ob/ob mice", "experiment": "Glucose lowering activity of halofenate analogs in ob/ob mice (Example 12)", "format": "in vivo", "details": "for Predose Glucose: baseline before dosing"}, "CYP2C9": {"target": "CYP2C9 (Homo sapiens, UniProt P11712)", "sequence (P11712 whole entry)": "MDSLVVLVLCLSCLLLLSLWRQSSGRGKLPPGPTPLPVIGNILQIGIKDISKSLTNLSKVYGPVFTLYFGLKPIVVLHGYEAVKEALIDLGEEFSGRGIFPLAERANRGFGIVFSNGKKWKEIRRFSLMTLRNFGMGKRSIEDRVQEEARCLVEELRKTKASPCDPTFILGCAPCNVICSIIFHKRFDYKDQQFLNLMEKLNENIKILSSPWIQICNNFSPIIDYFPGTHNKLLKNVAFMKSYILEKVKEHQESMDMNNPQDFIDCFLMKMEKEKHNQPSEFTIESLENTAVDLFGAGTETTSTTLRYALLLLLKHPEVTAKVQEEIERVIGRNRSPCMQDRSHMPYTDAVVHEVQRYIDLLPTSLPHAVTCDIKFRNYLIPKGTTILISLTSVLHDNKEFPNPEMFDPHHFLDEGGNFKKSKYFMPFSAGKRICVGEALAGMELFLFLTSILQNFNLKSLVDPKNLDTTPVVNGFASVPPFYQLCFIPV"}}}
{"molecule": "CN(C)C(=O)COC(=O)C(Oc1cccc(C(F)(F)F)c1)c1ccc(Cl)cc1", "note": "(single isomer, unassigned) [Compound 19.11]", "values": [{"measurement": "half-life", "setting": "[1]", "result": "< 30", "unit": "min"}]}
{"molecule": "CS(=O)(=O)NCCOC(=O)C(Oc1cccc(C(F)(F)F)c1)c1ccc(Cl)cc1", "note": "(single isomer, unassigned) [Compound 19.10]", "values": [{"measurement": "half-life", "setting": "[1]", "result": "< 60", "unit": "min"}]}
{"molecule": "C=CCOC(=O)C(Oc1cccc(C(F)(F)F)c1)c1ccc(Cl)cc1", "note": "(single isomer, unassigned) [Compound 19.1]", "values": [{"measurement": "half-life", "setting": "[1]", "result": 330, "unit": "min"}]}
{"molecule": "COc1ccc2[nH]c([S+]([O-])Cc3ncc(C)c(OC)c3C)nc2c1", "note": "(centres unmarked) [OMP, omeprazole, reference compound]", "values": [{"measurement": "inhibition at 30 min, 10 μM", "setting": "CYP2C19", "result": 50, "unit": "%"}]}
{"molecule": "O=C(NCCOC(=O)C(Oc1cccc(C(F)(F)F)c1)c1ccc(Cl)cc1)c1cccs1", "note": "(single isomer, unassigned) [Compound 19.2]", "values": [{"measurement": "half-life", "setting": "[1]", "result": "< 60", "unit": "min"}]}
{"molecule": "CCOC(=O)NCCOC(=O)C(Oc1cccc(C(F)(F)F)c1)c1ccc(Cl)cc1", "note": "(single isomer, unassigned; (-)) [Compound 19.9, (−)-2-ethoxycarbonylaminoethyl 4-chloro-alpha-(3-trifluoromethylphenoxy)benzeneacetate]", "values": [{"measurement": "half-life", "setting": "[1]", "result": "< 60", "unit": "min"}]}
{"molecule": "O=C(NCCOC(=O)C(Oc1cccc(C(F)(F)F)c1)c1ccc(Cl)cc1)c1ccncc1", "note": "(single isomer, unassigned) [Compound 19.26]", "values": [{"measurement": "half-life", "setting": "[1]", "result": "< 60", "unit": "min"}]}
{"molecule": "O=C(Oc1ccccc1)C(Oc1cccc(C(F)(F)F)c1)c1ccc(Cl)cc1", "note": "(single isomer, unassigned) [Compound 19.25]", "values": [{"measurement": "half-life", "setting": "[1]", "result": "< 30", "unit": "min"}]}
{"molecule": "O=C(OCCO)C(Oc1cccc(C(F)(F)F)c1)c1ccc(Cl)cc1", "note": "(single isomer, unassigned) [Compound 19.14]", "values": [{"measurement": "half-life", "setting": "[1]", "result": "< 120", "unit": "min"}]}
{"molecule": "CC(OC(=O)OC1CCCCC1)OC(=O)C(Oc1cccc(C(F)(F)F)c1)c1ccc(Cl)cc1", "note": "(single isomer, unassigned; (-)) [Compound 19.27, (−)-1-(cyclohexyloxycarbonyloxy)ethyl 4-chloro-alpha-(3-trifluoromethylphenoxy)benzeneacetate]", "values": [{"measurement": "half-life", "setting": "[1]", "result": "< 60", "unit": "min"}]}
{"molecule": "O=C(NCCOC(=O)C(Oc1cccc(C(F)(F)F)c1)c1ccc(Cl)cc1)c1cccnc1", "note": "(single isomer, unassigned) [Compound 19.20]", "values": [{"measurement": "half-life", "setting": "[1]", "result": "< 30", "unit": "min"}]}
{"molecule": "CN(C)C(=O)COC(=O)C(Oc1cccc(C(F)(F)F)c1)c1ccc(Cl)cc1", "note": "(racemic) [(±)Analog 38]", "values": [{"measurement": "6 hours Glucose", "setting": "C57BL/6J ob/ob mice; 125 mg/kg oral once a day", "result": "303.2 ± 18.2", "unit": "mg/dL"}, {"measurement": "30 hours Glucose", "setting": "C57BL/6J ob/ob mice; 125 mg/kg oral once a day", "result": "245.6 ± 15.6", "unit": "mg/dL"}, {"measurement": "54 hours Glucose", "setting": "C57BL/6J ob/ob mice; 125 mg/kg oral once a day", "result": "243.1 ± 10.6", "unit": "mg/dL"}, {"measurement": "Predose Glucose", "setting": "C57BL/6J ob/ob mice; 125 mg/kg group", "result": "329.4 ± 18.9", "unit": "mg/dL"}]}
{"molecule": "Nc1ccc(S(=O)(=O)Nc2ccnn2-c2ccccc2)cc1", "note": "[SFZ, sulfaphenazole, reference compound]", "values": [{"measurement": "Tolbutamide 4-OH TB Production", "setting": "CYP2C9", "result": "BQL"}]}
{"molecule": "CC(=O)OCCOC(=O)C(Oc1cccc(C(F)(F)F)c1)c1ccc(Cl)cc1", "note": "(single isomer, unassigned) [Compound 19.23]", "values": [{"measurement": "half-life", "setting": "[1]", "result": "< 60", "unit": "min"}]}
{"molecule": "NC(=O)COC(=O)C(Oc1cccc(C(F)(F)F)c1)c1ccc(Cl)cc1", "note": "(single isomer, unassigned; (-)) [(−)Analog 37]", "values": [{"measurement": "Predose Glucose", "setting": "C57BL/6J ob/ob mice; 150 mg/kg group", "result": "373.4 ± 16.1", "unit": "mg/dL"}, {"measurement": "6 hours Glucose", "setting": "C57BL/6J ob/ob mice; single oral dose 150 mg/kg", "result": "271.7 ± 22.5", "unit": "mg/dL"}, {"measurement": "time points with significantly reduced plasma glucose", "setting": "C57BL/6J ob/ob mice; single oral dose 150 mg/kg", "result": 6, "unit": "h"}]}
{"molecule": "O=C(OCC(=O)N1CCOCC1)C(Oc1cccc(C(F)(F)F)c1)c1ccc(Cl)cc1", "note": "(single isomer, unassigned) [Compound 19.5]", "values": [{"measurement": "half-life", "setting": "[1]", "result": "< 30", "unit": "min"}]}
{"molecule": "COCC(=O)NCCOC(=O)C(Oc1cccc(C(F)(F)F)c1)c1ccc(Cl)cc1", "note": "(single isomer, unassigned) [Compound 19.17]", "values": [{"measurement": "half-life", "setting": "[1]", "result": "< 60", "unit": "min"}]}
{"molecule": "NC(=O)COC(=O)C(Oc1cccc(C(F)(F)F)c1)c1ccc(Cl)cc1", "note": "(racemic) [(±)Analog 37]", "values": [{"measurement": "6 hours Glucose", "setting": "C57BL/6J ob/ob mice; 125 mg/kg oral once a day", "result": "345.4 ± 19.7", "unit": "mg/dL"}, {"measurement": "30 hours Glucose", "setting": "C57BL/6J ob/ob mice; 125 mg/kg oral once a day", "result": "312.5 ± 21.7", "unit": "mg/dL"}, {"measurement": "54 hours Glucose", "setting": "C57BL/6J ob/ob mice; 125 mg/kg oral once a day", "result": "285.1 ± 14.7", "unit": "mg/dL"}, {"measurement": "time points with significantly lowered plasma glucose", "setting": "C57BL/6J ob/ob mice; 125 mg/kg oral once a day", "result": 54, "unit": "h"}, {"measurement": "Predose Glucose", "setting": "C57BL/6J ob/ob mice; 125 mg/kg group", "result": "387.4 ± 18.8", "unit": "mg/dL"}]}
{"molecule": "CC(=O)NCCOC(=O)C(Oc1cccc(C(F)(F)F)c1)c1ccc(Br)cc1", "note": "(racemic) [(±)Analog 29]", "values": [{"measurement": "6 hours Glucose", "setting": "C57BL/6J ob/ob mice; 125 mg/kg oral once a day", "result": "299.7 ± 24.5", "unit": "mg/dL"}, {"measurement": "30 hours Glucose", "setting": "C57BL/6J ob/ob mice; 125 mg/kg oral once a day", "result": "237.4 ± 14.9", "unit": "mg/dL"}, {"measurement": "54 hours Glucose", "setting": "C57BL/6J ob/ob mice; 125 mg/kg oral once a day", "result": "293.3 ± 9.7", "unit": "mg/dL"}, {"measurement": "Predose Glucose", "setting": "C57BL/6J ob/ob mice; 125 mg/kg group", "result": "387.1 ± 16.0", "unit": "mg/dL"}]}
{"molecule": "NC(=O)C1CCCN1C(=O)COC(=O)C(Oc1cccc(C(F)(F)F)c1)c1ccc(Cl)cc1", "note": "(single isomer, unassigned) [Compound 19.16]", "values": [{"measurement": "half-life", "setting": "[1]", "result": "< 30", "unit": "min"}]}
